Columns and labels:
[1] = Elimination half life in Beagle dog measured at 2.5 mg/kg, iv for 1 to 24 hrs by HPLC-MS/MS analysis; type: ADME, organism-based, Canis lupus familiaris; conditions: in vivo, time 1-24 hrs, read-out: beta t1/2 (converted)
[2] = Toxicity in athymic nu/nu CD-1 mouse allografted with mouse 3T3 cells expressing human IGF-1R assessed as loss in body weight at 25 mg/kg, po for 12 days relative to control; type: organism-based, NIH3T3; conditions: in vivo, 288 h, time 12 day
[3] = Cmax in CD-1 mouse measured at 25 mg/kg, po for 1 to 24 hrs by HPLC-MS/MS analysis; type: ADME, organism-based; conditions: in vivo, time 1-24 hrs
[4] = AUC last in Sprague-Dawley rat measured at 100 mg/kg, po for 1 to 24 hrs by HPLC-MS/MS analysis; type: ADME, organism-based; conditions: in vivo, time 1-24 hrs
Cytochrome P450 1A2 = biological target: T1, Cytochrome P450 1A2 (Homo sapiens, UniProt P05177); test: Inhibition of CYP1A2 (unknown origin) in presence of NADPH generating system incubated for 20 mins by luminescent method; type: ADME
T1 sequence (P05177 whole entry): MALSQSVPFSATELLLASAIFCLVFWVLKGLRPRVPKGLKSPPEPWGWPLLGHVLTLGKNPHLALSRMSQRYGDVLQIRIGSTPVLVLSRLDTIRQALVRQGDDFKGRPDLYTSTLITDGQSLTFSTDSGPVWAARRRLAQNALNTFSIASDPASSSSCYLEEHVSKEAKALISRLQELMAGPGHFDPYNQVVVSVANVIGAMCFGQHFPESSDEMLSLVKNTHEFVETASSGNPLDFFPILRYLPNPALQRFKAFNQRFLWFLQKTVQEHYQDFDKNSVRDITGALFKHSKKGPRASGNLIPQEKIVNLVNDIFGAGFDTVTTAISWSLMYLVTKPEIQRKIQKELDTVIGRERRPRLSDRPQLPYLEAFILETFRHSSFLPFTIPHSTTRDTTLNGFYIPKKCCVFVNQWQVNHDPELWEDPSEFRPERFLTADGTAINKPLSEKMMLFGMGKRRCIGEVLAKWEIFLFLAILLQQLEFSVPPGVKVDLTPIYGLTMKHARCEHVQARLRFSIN

[5] = Oral bioavailability in CD-1 mouse measured at 250 mg/kg for 1 to 24 hrs by HPLC-MS/MS analysis; type: ADME, organism-based; conditions: in vivo, time 1-24 hrs
[6] = Plasma concentration in CD-1 mouse measured at 25 mg/kg, po for 24 hrs by HPLC-MS/MS analysis; type: ADME, organism-based
[7] = In vivo inhibition of IGF-1R phosphorylation in athymic nu/nu CD-1 mouse allografted with mouse 3T3 cells expressing human IGF-1R at 75 mg/kg, po measured after 4 to 24 hrs relative to control; type: functional; conditions: nu/nu CD-1, NIH3T3, time 4-24 hrs
[8] = AUC (0 to infinity) in Beagle dog measured at 2.5 mg/kg, iv for 1 to 24 hrs by HPLC-MS/MS analysis; type: ADME, organism-based, Canis lupus familiaris; conditions: in vivo, time 1-24 hrs
[9] = Cmax in Sprague-Dawley rat measured at 12.5 mg/kg, po for 1 to 24 hrs by HPLC-MS/MS analysis; type: ADME, organism-based; conditions: in vivo, time 1-24 hrs
[10] = Toxicity in athymic nu/nu CD-1 mouse allografted with mouse 3T3 cells expressing human IGF-1R assessed as loss in body weight at 75 mg/kg, po for 12 days relative to control; type: organism-based, NIH3T3; conditions: in vivo, 288 h, time 12 day
[11] = Oral bioavailability in CD-1 mouse measured at 25 mg/kg for 1 to 24 hrs by HPLC-MS/MS analysis; type: ADME, organism-based; conditions: in vivo, time 1-24 hrs
[12] = Clearance in Sprague-Dawley rat measured at 5 mg/kg, iv for 1 to 24 hrs by HPLC-MS/MS analysis; type: ADME, organism-based; conditions: in vivo, time 1-24 hrs
[13] = Plasma concentration in athymic nu/nu CD-1 mouse allografted with mouse 3T3 cells expressing human IGF-1R at 75 mg/kg, po measured after 24 hrs; type: ADME, organism-based, NIH3T3
[14] = AUC last in Beagle dog measured at 5 mg/kg, po for 1 to 24 hrs by HPLC-MS/MS analysis; type: ADME, organism-based, Canis lupus familiaris; conditions: in vivo, time 1-24 hrs
[15] = Elimination half life in CD-1 mouse measured at 5 mg/kg, iv for 1 to 24 hrs by HPLC-MS/MS analysis; type: ADME, organism-based; conditions: in vivo, time 1-24 hrs, read-out: beta t1/2 (converted)
[16] = AUC (0 to infinity) in CD-1 mouse measured at 5 mg/kg, iv for 1 to 24 hrs by HPLC-MS/MS analysis; type: ADME, organism-based; conditions: in vivo, time 1-24 hrs
[17] = Oral bioavailability in CD-1 mouse measured at 5 mg/kg for 1 to 24 hrs by HPLC-MS/MS analysis; type: ADME, organism-based; conditions: in vivo, time 1-24 hrs
[18] = Plasma concentration in CD-1 mouse measured at 75 mg/kg, po for 24 hrs by HPLC-MS/MS analysis; type: ADME, organism-based
Cytochrome P450 3A4 = Cytochrome P450 3A4 (Homo sapiens, UniProt P08684); test: Inhibition of CYP3A4 (unknown origin) using luciferin as substrate in presence of NADPH generating system incubated for 20 mins by luminescent method; type: ADME
[19] = AUC last in CD-1 mouse measured at 5 mg/kg, po for 1 to 24 hrs by HPLC-MS/MS analysis; type: ADME, organism-based; conditions: in vivo, time 1-24 hrs
[20] = Volume of distribution at steady state in Sprague-Dawley rat measured at 5 mg/kg, iv for 1 to 24 hrs by HPLC-MS/MS analysis; type: ADME, organism-based; conditions: in vivo, time 1-24 hrs, read-out: Vdss
NIH3T3 = test: Antitumor activity against mouse 3T3 cells allografted in athymic nu/nu CD-1 mouse assessed as tumor growth inhibition at 75 mg/kg, po for 12 days relative to control; type: functional; conditions: NIH3T3, 288 h, time 12 day, read-out: TGI
[21] = Elimination half life in Sprague-Dawley rat measured at 5 mg/kg, iv for 1 to 24 hrs by HPLC-MS/MS analysis; type: ADME, organism-based; conditions: in vivo, time 1-24 hrs, read-out: beta t1/2 (converted)
[22] = Cmax in Beagle dog measured at 5 mg/kg, po for 1 to 24 hrs by HPLC-MS/MS analysis; type: ADME, organism-based, Canis lupus familiaris; conditions: in vivo, time 1-24 hrs
[23] = Volume of distribution at steady state in CD-1 mouse measured at 5 mg/kg, iv for 1 to 24 hrs by HPLC-MS/MS analysis; type: ADME, organism-based; conditions: in vivo, time 1-24 hrs, read-out: Vdss
[24] = Oral bioavailability in CD-1 mouse measured at 75 mg/kg for 1 to 24 hrs by HPLC-MS/MS analysis; type: ADME, organism-based; conditions: in vivo, time 1-24 hrs
[25] = biological target: Platelet-derived growth factor receptor (Homo sapiens, UniProt P09619+P16234); test: Inhibition of PDGFR-alpha/beta (unknown origin) in presence of ATP Km treated at 2 hrs followed by […] ligand addition for 15 mins by ELISA analysis
[26] = AUC last in Sprague-Dawley rat measured at 12.5 mg/kg, po for 1 to 24 hrs by HPLC-MS/MS analysis; type: ADME, organism-based; conditions: in vivo, time 1-24 hrs
[27] = Cmax in CD-1 mouse measured at 75 mg/kg, po for 1 to 24 hrs by HPLC-MS/MS analysis; type: ADME, organism-based; conditions: in vivo, time 1-24 hrs
[28] = Oral bioavailability in Sprague-Dawley rat measured at 12.5 mg/kg for 1 to 24 hrs by HPLC-MS/MS analysis; type: ADME, organism-based; conditions: in vivo, time 1-24 hrs
[29] = Toxicity in athymic nu/nu CD-1 mouse allografted with mouse 3T3 cells expressing human IGF-1R assessed as hyperglycemia at 75 mg/kg, po for 12 days; type: organism-based, NIH3T3; conditions: in vivo, 288 h, time 12 day

Cytochrome P450 3A4, sequence (P08684 whole entry): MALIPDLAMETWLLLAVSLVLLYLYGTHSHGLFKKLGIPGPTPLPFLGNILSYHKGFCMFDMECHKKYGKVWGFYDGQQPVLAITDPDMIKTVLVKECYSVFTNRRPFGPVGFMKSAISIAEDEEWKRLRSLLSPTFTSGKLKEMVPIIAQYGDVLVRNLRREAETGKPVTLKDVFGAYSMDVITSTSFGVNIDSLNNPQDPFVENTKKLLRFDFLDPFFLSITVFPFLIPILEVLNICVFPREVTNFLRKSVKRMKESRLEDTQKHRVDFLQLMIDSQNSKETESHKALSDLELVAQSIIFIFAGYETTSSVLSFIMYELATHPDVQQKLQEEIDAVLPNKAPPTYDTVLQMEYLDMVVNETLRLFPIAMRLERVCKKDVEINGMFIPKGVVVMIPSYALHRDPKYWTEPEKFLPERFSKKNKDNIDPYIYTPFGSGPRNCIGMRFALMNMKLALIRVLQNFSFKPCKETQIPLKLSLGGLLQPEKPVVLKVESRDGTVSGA

C[C@]1(O)C[C@@H](c2nc(-c3ccc4ccc(-c5ccccc5)nc4c3)c3c(N)nccn32)C1 [LINSITINIB]
half-life [1]: 1.18 h
Activity [2]: < 10%
Cmax [3]: 16 µM
AUC(0-t) [4]: 424000 ng·h/mL
IC50 (Cytochrome P450 1A2): > 10 µM
bioavailability [5]: > 100%
concentration at 24 h [6]: 0.02 µM
inhibition in vivo at 75 mg/kg [7]: 80%
AUC(0-inf) [8]: 1070 ng·h/mL
Cmax [9]: 10 µM
Activity [10]: 16%
bioavailability [11]: 100%
clearance [12]: 4 mL/min/kg
concentration at 24 h [13]: 4.77 µM
AUC(0-t) [14]: 1330 ng·h/mL
half-life [15]: 2.14 h
AUC(0-inf) [16]: 6950 ng·h/mL
bioavailability [17]: 98%
concentration at 24 h [18]: 2.92 µM
IC50 (Cytochrome P450 3A4): > 10 µM
AUC(0-t) [19]: 6770 ng·h/mL
Vd [20]: 0.79 L/kg
inhibition in vivo at 75 mg/kg (NIH3T3): 100%
half-life [21]: 2.64 h
Cmax [22]: 1.2 µM
Vd [23]: 2.05 L/kg
bioavailability [24]: 84%
IC50 [25]: > 10 µM
AUC(0-t) [26]: 42800 ng·h/mL
Cmax [27]: 16.8 µM
bioavailability [28]: 74%
Activity [29]: Toxic

From ChEMBL document CHEMBL5661980, “Discovery of OSI-906: a selective and orally efficacious dual inhibitor of the IGF-1 receptor and insulin receptor” (Future Med Chem, 2009)
